# Reference: publication PMC4349960, “[^18F]FE@SUPPY: a suitable PET tracer for the adenosine A3 receptor? An in vivo study in rodents” (European Journal of Nuclear Medicine and Molecular Imaging, 2015)
# “And” between values parts separate entries of the source, which are not always exact repeats. Identical values can stand only once.
# Assays:
# A3R = test system: A3R; set-up: method as in PMID 20447552; details: cited from earlier work
# [1] = Ex vivo stability/metabolism in rat plasma and brain after pretreatment; set-up: species or system rats; details: for Brain to blood uptake ratio / %ID/g at 60 min, Blood (plasma) / %ID/g at 60 min, Brain / Unchanged [^18F]FE@SUPPY at 60 min, Blood (plasma) / Unchanged [^18F]FE@SUPPY at 60 min, Brain: rats
# Procedure: To determine the influence of the four treatments (vehicle, MRS1523, FE@SUPPY, TQD) on uptake of [^18F]FE@SUPPY, stability was assessed in plasma and brain 60 min after tracer injection. Final blood samples (3 mL) were collected in heparin-buffered tubes, rat brains were washed with ice-cold water and homogenized in 0.9 % aqueous NaCl solution (1 mL) using an IKA T10 basic Ultra-turrax (IKA Laboratory Equipment, Staufen, Germany). […] Sample clean-up was performed by vortexing plasma with the equivalent amount of methanol/acetonitrile (9:1) for 1 min and by subsequent ultracentrifugation (10,000 rpm, 5 min) to remove precipitated proteins. The supernatants obtained were analysed by radio-HPLC (Agilent, Boeblingen, Germany) equipped with a series 1100 autosampler, a series 1200 quaternary pump, a series 1200 diode array detector and a lead-shielded BGO radiodetector. A Chromolith® Performance RP-18e (100 × 4.6 mm, 5 μm) column with a Chromolith® Performance RP-18e (4 x4 mm, 5 μm) precolumn was eluted at a flow rate of 2 mL/min using a mobile phase consisting of 60 % acetonitrile and 40 % water/acetic acid 97.5:2.5 and 32 mM ammonium acetate, pH 3.5. UV detection was performed at a wavelength of 254 nm. The retention time of [^18F]FE@SUPPY was 4.6 – 5.9 min (UV detection and radiodetection).
# [2] = set-up: method as in PMID 18158944; details: cited from earlier work
# [3] = biological target: T1, CHO cells expressing the human A3R (CHO-A3) (Homo sapiens, UniProt P0DMS8); test: Xenograft mouse model PET (CHO vs CHO-A3 solid tissue masses); assay type: in vivo, mice
# T1 construct: Karl-Norbert Klotz (University of Würzburg); host or cells: CHO cells stably transfected (CHO-A3), grown as subcutaneous masses in NMRI-nu/nu mice
# T1 sequence (P0DMS8 1-318): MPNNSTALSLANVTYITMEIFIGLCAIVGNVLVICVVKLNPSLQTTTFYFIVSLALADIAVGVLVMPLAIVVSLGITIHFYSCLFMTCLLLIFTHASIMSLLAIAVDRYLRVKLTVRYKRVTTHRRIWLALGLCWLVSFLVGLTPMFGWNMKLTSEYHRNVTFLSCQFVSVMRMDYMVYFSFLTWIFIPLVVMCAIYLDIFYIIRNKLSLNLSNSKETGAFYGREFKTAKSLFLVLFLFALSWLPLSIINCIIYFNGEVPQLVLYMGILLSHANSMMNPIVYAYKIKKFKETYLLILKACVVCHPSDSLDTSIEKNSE
# Procedure: Adult male Sprague-Dawley rats (Him:OFA; Animal Research Institute, Himberg, Austria) weighing 307 ± 35 g were kept under controlled environmental conditions (22 ± 1 °C, 40 – 70 % humidity, 12-h light/dark cycle) with free access to standard laboratory animal diet and tap water. Before being used in the experiments, the animals were allowed to adapt to the new conditions for at least a week. Prior to each experiment, the animals were placed in a chamber containing 2.5 % isoflurane in oxygen. When unconscious, the animals were taken from the chamber and kept under anaesthesia with 1.8 % isoflurane administered via a mask during the whole experiment. Pathogen-free, female NMRI-nu/nu mice (Taconic, Denmark) weighing 28.1 ± 0.8 g were housed under sterile conditions. Mice were injected subcutaneously into both upper flanks with 100 μL of a cell suspension in phosphate-buffered saline containing 10^6 CHO cells (right side) or 10^6 CHO-A3 cells (left side). During the imaging periods of 60 or 90 min (rats or xenografted mice, respectively) the isoflurane level was adjusted depending on the depth of anaesthesia. A humidifier was used to moisten the gas mixture before supplying it to the animal.
# Around 17 days after cell inoculation, animals in the xenograft group were positioned in the imaging chamber and a dynamic 90-min PET scan was initiated at the start of [^18F]FE@SUPPY injection (2.21 ± 0.75 MBq dissolved in 100 μl physiological saline, pH 7.4; three animals) via a tail vein under isoflurane anaesthesia (2 %). Additionally, in this group, [^18F]FDG PET was performed 1 day prior to the [^18F]FE@SUPPY experiments. […] In brief, mice were deprived of food for 6 – 8 h before [^18F]FDG injection via a tail vein. Mice had access to drinking water at all times. Body warming was achieved by placing the entire cage on a heating pad kept at 38 °C. Warming was started around 30 min before tracer injection and was continued throughout the uptake and imaging period. [^18F]FDG (6.03 ± 1.31 MBq dissolved in 100 μL physiological saline, pH 7.4; three animals) was injected via a tail vein under isoflurane anaesthesia (2 %). Mice were kept under isoflurane anaesthesia throughout the whole uptake and imaging period. A 10-min static image was acquired at 1 h after [^18F]FDG injection. […]
# For all PET scans (rats and xenografted mice), list mode data were acquired with an energy window of 350 – 750 keV (rats) or 250 – 750 keV (mice) and a 6-ns timing window. Before each PET scan, a transmission scan using a ^57Co point source was recorded over 10 min. […] A calibration factor for converting units of microPET images into absolute radioactivity concentration units was first generated by imaging a phantom filled with a known concentration of [^18F]FDG. […]
# [4] = pretreatment unlabelled FE@SUPPY
smiles,measurement,setting,value
"CCSC(=O)c1c(CC)nc(-c2ccccc2)c(C(=O)OCC[18F])c1CC [[^18F]FE@SUPPY, 5-(2-[^18F]fluoroethyl)-2,4-diethyl-3-(ethylsulfanylcarbonyl)-6-phenylpyridine-5-carboxylate]",Autoradiography in humans and rats,A3R,High selectivity; FE@SUPPLY comparable with MRS1523 [12]
same,Ex vivo metabolites in rats (where found),[1]; 60 min after tracer injection,Blood and brain
same,Brain to blood uptake ratio,[1]; baseline,5.2
same,"%ID/g at 60 min, Blood (plasma)",[1]; pretreatment DMSO,0.022 ± 0.003 %ID/g and 0.0216 ± 0.003 %ID/g
same,"%ID/g at 60 min, Brain",[1]; pretreatment DMSO,0.1132 ± 0.0002 %ID/g
same,"Unchanged [^18F]FE@SUPPY at 60 min, Blood (plasma)",[1]; pretreatment DMSO,25.8 ± 5.3% and 25.81 ± 5.3%
same,"Unchanged [^18F]FE@SUPPY at 60 min, Brain",[1]; pretreatment DMSO,43.7 ± 9.5%
same,Brain to blood uptake ratio,[1]; pretreatment FE@SUPPY,7.9
same,"%ID/g at 60 min, Blood (plasma)",[1]; pretreatment MRS1523,0.0145 ± 0.002 %ID/g
same,"%ID/g at 60 min, Brain",[1]; pretreatment MRS1523,0.0918 ± 0.0001 %ID/g
same,"Unchanged [^18F]FE@SUPPY at 60 min, Blood (plasma)",[1]; pretreatment MRS1523,26.5 ± 1.4% and 26.54 ± 1.4%
same,"Unchanged [^18F]FE@SUPPY at 60 min, Brain",[1]; pretreatment MRS1523,37.8 ± 4.3% and 37.75 ± 4.3%
same,"%ID/g at 60 min, Blood (plasma)",[1]; pretreatment TQD,0.0214 ± 0.004 %ID/g
same,"%ID/g at 60 min, Brain",[1]; pretreatment TQD,0.1507 ± 0.0005 %ID/g
same,"Unchanged [^18F]FE@SUPPY at 60 min, Blood (plasma)",[1]; pretreatment TQD,39.9 ± 4.7% and 39.87 ± 4.7%
same,"Unchanged [^18F]FE@SUPPY at 60 min, Brain",[1]; pretreatment TQD,55.2 ± 7.0% and 55.21 ± 7.0%
same,"%ID/g at 60 min, Blood (plasma)",[1]; [4],0.0160 ± 0.002 %ID/g
same,"%ID/g at 60 min, Brain",[1]; [4],0.1273 ± 0.0000 %ID/g
same,"Unchanged [^18F]FE@SUPPY at 60 min, Blood (plasma)",[1]; [4],32.4 ± 5.6%
same,"Unchanged [^18F]FE@SUPPY at 60 min, Brain",[1]; [4],49.6 ± 9.4% and 49.64 ± 9.4%
same,Biodistribution in rats,[2],Followed mainly A3 pattern (except testes) [3]
same,Bone uptake in rats,[2],None [3]
same,Brain to blood uptake ratio in biodistribution experiments,[2]; rats,up to 5.4
same,brain-to-blood ratios over time,[2]; rats,increase over time
same,"Xenograft model of human A3R, finding",[3]; compared to [^18F]FDG,Specific uptake in CHO-A3 solid mass (p ≤ 0.03) compared to [^18F]FDG
same,increased uptake (AUC) in CHO-A3 versus CHO tissue masses,"[3]; xenografted NMRI-nu/nu mice, 90-min PET",around 1.42 fold
